Earlier results, collected in patent US20250171456A1, “P[…] AND THEIR THERAPEUTIC USES” (priority 2022, published 2025).

Tests used:
[1] = humans, after oral administration of psilocybin (Passie, 2002)
[2] = Ballesteros, 2006

SMILES | time until psilocin is detectable in significant amounts in the plasma [1] [min] | solubility in water relative to psilocin [2]
CN(C)CCc1c[nH]c2cccc(O)c12 [Psilocin] | 20 to 40 | 
CN(C)CCc1c[nH]c2cccc(OP(=O)(O)O)c12 [Psilocybin] |  | more soluble in water than psilocin
